{
  "source": "paper PMC5472784",
  "about": "“Pyrazinamide and derivatives block ethylene biosynthesis by inhibiting ACC oxidase” (Nature Communications, 2017)",
  "key": {"[1]": {"target": "AtACO2 (Arabidopsis thaliana, UniProt Q41931)", "sequence (Q41931 1-303)": "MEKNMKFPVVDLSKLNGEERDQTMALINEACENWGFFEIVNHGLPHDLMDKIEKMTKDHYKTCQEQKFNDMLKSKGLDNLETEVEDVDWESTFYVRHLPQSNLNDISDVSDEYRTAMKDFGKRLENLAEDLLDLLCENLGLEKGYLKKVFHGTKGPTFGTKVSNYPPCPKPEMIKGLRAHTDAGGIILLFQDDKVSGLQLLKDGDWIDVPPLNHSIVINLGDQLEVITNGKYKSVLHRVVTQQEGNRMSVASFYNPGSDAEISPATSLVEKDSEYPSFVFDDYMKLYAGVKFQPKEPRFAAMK", "assay": "ACO enzymatic activity assay and kinetic analysis (ethylene by GC-FID)", "format": "biochemical", "conditions": "even at a high concentration (2 mM)"}, "[2]": {"test_system": "Arabidopsis etiolated seedlings (Col-0, eto1-2, ctr1-1, ein2-5)", "assay": "Ethylene response phenotype of 3-day-old etiolated seedlings (hypocotyl and root length, root hairs, root cells)", "format": "in vivo, Arabidopsis thaliana"}, "[3]": {"test_system": "ethylene production of Arabidopsis seedlings", "assay": "Measurement of ethylene production of seedlings (GC-FID)", "format": "in vivo, Arabidopsis thaliana", "conditions": "etiolated and green seedlings, 50 μM", "description": "Ethylene production was determined as follows: 30 3-day-old etiolated or 5-day-old green seedlings of Col-0, eto1-2 or other mutants were selected randomly and sealed in a 30 ml vial containing 3 ml liquid MS medium supplemented with indicated treatments. The vial was sealed with a rubber stopper for 24 h at 22 °C prior to ethylene sampling. A 250 μl sample of the headspace gas was withdrawn using a gas-tight syringe from each chamber through the septum stopper, and injected into a gas chromatograph (Agilent 6890NGC, Agilent Technologies, USA) that was equipped with a HP-PLOTQ column (40 m × 530 μm × 40 μm) and a flame ionization detector (FID)[44]. Separations were carried out at 60 °C using N2 as the carrier gas. The area of the ethylene peak was integrated with Agilent Chemstation and results were expressed as the average relative ethylene production (%) of each treatment."}, "[4]": {"test_system": "Arabidopsis PSB-D suspension cultured cells", "assay": "Ethylene production of suspension cultured cells", "format": "cell-based, Arabidopsis thaliana"}, "[5]": {"test_system": "ACC conjugating enzymes (ACC and M-ACC content of eto1-2 seedlings)", "assay": "Quantification of ACC and M-ACC", "format": "in vivo, Arabidopsis thaliana", "conditions": "10-day-old green seedlings, 50 μM PZA", "description": "10-day-old green seedlings of eto1-2 under different treatments were ground in liquid nitrogen, and extracted with 5% SSA (sulfosalicylic acid). For ACC measurement, the extract was oxidized with 2 mM HgCl2, 0.33% NaOCl and 0.2 M NaOH, reacted on ice for 4 min, and then the ethylene production was determined with GC-FID. For M-ACC measurement, the extract was hydrolyzed using 2 M HCl followed by oxidization and ethylene production determination, and the content of ACC and M-ACC were calculated based on the ethylene production and efficiency of oxidization."}, "[6]": {"test_system": "EIN3", "assay": "EIN3 protein level (Western blot) and pEBS:GUS staining", "format": "in vivo, Arabidopsis thaliana", "conditions": "1 μM ACC, 50, 100 and 200 μM PZA"}, "[7]": {"test_system": "Arabidopsis PSB-D suspension cultured cells", "assay": "Wayne Test, conversion of PZA to POA in suspension cultured cells", "format": "cell-based, Arabidopsis thaliana", "conditions": "500 μM PZA, 24 h, abolished in boiled cells", "description": "500 μM PZA were added to 50 ml Arabidopsis suspension cell log phase cultures or boiled cultures and incubated at 27 °C for 24 h. 1 ml cell culture was collected after centrifugation, and 10 μl 2% ferrous sulfate was added to the supernatant for colour development. The absorbance at 450 nm of each samples was measured by spectrophotometer and the POA concentration was calculated according to the POA-Abs450 standard curve drawn using the reference solutions of POA.\nArabidopsis suspension cells were cultured in liquid MS medium in the presence or absence of 500 μM PZA for 24 h. The culture supernatant was collected by centrifugation and alkalized (pH>11) using sodium hydroxide (NaOH), followed by extracting with ethyl acetate twice to eliminate lipid-soluble molecules. The aqueous phase was collected and acidified (pH<2) using hydrochloric acid (HCl). The protonated cultures were extracted with ethyl acetate five times to enrich POA. The resulting samples were concentrated by reduced pressure distillation and analysed using a Fourier Transform Ion Cyclotron Resonance Mass Spectrometer (Solarix XR, Bruker)."}, "[8]": {"target": "T1, AtNIC2 (Arabidopsis thaliana, UniProt Q9FMX7)", "T1 sequence (Q9FMX7 1-198)": "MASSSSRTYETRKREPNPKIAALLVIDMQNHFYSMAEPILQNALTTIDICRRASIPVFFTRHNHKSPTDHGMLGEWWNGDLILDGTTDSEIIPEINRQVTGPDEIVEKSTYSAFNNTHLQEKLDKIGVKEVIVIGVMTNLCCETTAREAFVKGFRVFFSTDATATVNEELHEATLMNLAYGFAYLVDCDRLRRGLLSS", "assay": "In vitro PZase assay (TLC, NMR)", "format": "biochemical", "conditions": "5 mM PZA, 12 h, 30 °C", "source_text": "(§1) Silica TLC plates were developed in dichloromethane/methanol (3:1), and analysed with ultraviolet.\nFor NMR analysis, the AtNIC2-catalysed PZase reaction was acidified using HCl and extracted using ethyl acetate. The solvent was removed by reduced pressure distillation. The sample was then re-dissolved in dimethyl sulfoxide-d6 and analysed using Bruker-400 MHz NMR (ARX400, Bruker)."}, "[9]": {"target": "T2, AtNIC3 (Arabidopsis thaliana, UniProt Q9FMX8)", "T2 sequence (Q9FMX8 1-198)": "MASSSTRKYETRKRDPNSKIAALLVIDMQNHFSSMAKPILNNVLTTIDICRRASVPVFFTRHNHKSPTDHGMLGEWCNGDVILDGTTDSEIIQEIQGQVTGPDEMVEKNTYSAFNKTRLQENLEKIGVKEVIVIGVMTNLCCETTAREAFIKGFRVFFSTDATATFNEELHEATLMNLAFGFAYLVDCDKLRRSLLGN", "assay": "In vitro PZase assay (TLC)", "format": "biochemical", "conditions": "5 mM PZA, 12 h, 30 °C", "source_text": "as §1"}, "[10]": {"test_system": "GA response", "assay": "GA response, pRGA::GFP-RGA reporter seedlings", "format": "in vivo, Arabidopsis thaliana", "conditions": "pRGA::GFP-RGA seedlings, 20, 50, 100 μM PZA", "description": "(§2) GFP fluorescence and propidium iodide staining signals in roots were detected using Zeiss LSM-710 microscope. All seedlings were grown in the dark for 3 days on MS medium supplemented with the indicated treatments, and then mounted on glass slides and observed in water. For propidium iodide staining, roots were visualized in the presence of propidium iodide without fixation. ImageJ was used to process images and to quantify the fluorescent intensity of GFP."}, "[11]": {"test_system": "anthocyanin accumulation", "assay": "Anthocyanin measurement", "format": "in vivo, Arabidopsis thaliana", "conditions": "6-day-old Col-0 green seedlings", "source_text": "6-day-old green seedlings grown on MS medium supplemented with different concentration of PZA were sampled for anthocyanin measurement by spectrophotometry. The content of anthocyanin is presented as (A535−A650)/g."}, "[12]": {"test_system": "auxin response", "assay": "Auxin response, pDR5::GFP reporter lines", "format": "in vivo, Arabidopsis thaliana", "conditions": "pDR5::GFP/Col-0 and pDR5::GFP/ein2-5", "description": "as §2"}},
  "data": [
    {"smiles": "NC(=O)c1cnccn1", "note": "[PZA, pyrazinamide]", "values": [
      {"measurement": "inhibition of the activity of AtACO2", "setting": "[1]", "value": "no inhibition"},
      {"measurement": "cell elongation in the root maturation zone of eto1-2", "setting": "[2]; 50 μM", "value": "promoted cell elongation"},
      {"measurement": "root hair formation of eto1-2", "setting": "[2]; 50 μM", "value": "effectively suppressed"},
      {"measurement": "size of the cell division zone of eto1-2 root", "setting": "[2]; 50 μM", "value": "little effect"},
      {"measurement": "short-root and short-hypocotyl phenotype of eto1-2", "setting": "[2]; 3-day-old etiolated eto1-2 seedlings, MS medium with compound (50 μM shown)", "value": "partially suppressed"},
      {"measurement": "phenotype of ethylene signalling mutants ctr1-1 and ein2-5", "setting": "[2]; 3-day-old etiolated seedlings", "value": "little effect"},
      {"measurement": "ACC-induced short hypocotyl and root phenotype", "setting": "[2]; Col-0, 1 μM ACC, 50 or 100 μM PZA", "value": "significantly suppressed"},
      {"measurement": "ethylene-induced phenotype", "setting": "[2]; Col-0, 2 p.p.m. ethylene, 50 or 100 μM PZA", "value": "no effect"},
      {"measurement": "lengths of hypocotyls and roots of wild-type (Col-0)", "setting": "[2]; etiolated seedlings, increasing doses (1-100 μM)", "value": "slightly promoted"},
      {"measurement": "ethylene production of eto1-2", "setting": "[3]", "value": "effectively inhibited"},
      {"measurement": "ethylene production in suspension cultured cells", "setting": "[4]", "value": "inhibited"},
      {"measurement": "ACC level in eto1-2", "setting": "[5]", "value": "slight increase"},
      {"measurement": "M-ACC level in eto1-2", "setting": "[5]", "value": "almost no change"},
      {"measurement": "ACC-induced EIN3 protein accumulation and transcriptional activation of target promoter", "setting": "[6]", "value": "inhibited"},
      {"measurement": "conversion into POA in PSB-D culture", "setting": "[7]", "value": "converted into POA"},
      {"measurement": "conversion of PZA into POA by AtNIC2", "setting": "[8]", "value": "able to convert PZA into POA"},
      {"measurement": "conversion of PZA into POA by AtNIC3", "setting": "[9]", "value": "able to convert PZA into POA"},
      {"measurement": "effect on GA response", "setting": "[10]", "value": "virtually no effect"},
      {"measurement": "effect on anthocyanin accumulation", "setting": "[11]", "value": "virtually no effect"},
      {"measurement": "effect on auxin response", "setting": "[12]", "value": "EIN2-dependent manner"}
    ]}
  ]
}
